Source: PubChem BioAssay (NCI)
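GI50: concentration for 50% inhibition of growth. TGI: concentration producing complete growth inhibition.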

Key:
Assay in all cases: inhibition of tumour cell growth, NCI panel, 384-well format
786-0 renal = test system: 786-0 renal
A498 renal = test system: A498 renal
A549 NSCLC = test system: A549 NSCLC
ACHN renal = test system: ACHN renal
BT-549 breast = test system: BT-549 breast
CAKI-1 renal = test system: CAKI-1 renal
CCRF-CEM leukemia = test system: CCRF-CEM leukemia
COLO 205 colon = test system: COLO 205 colon
DU-145 prostate = test system: DU-145 prostate
EKVX NSCLC = test system: EKVX NSCLC
HCC-2998 colon = test system: HCC-2998 colon
HCT-116 colon = test system: HCT-116 colon
HCT-15 colon = test system: HCT-15 colon
HL-60(TB) leukemia = test system: HL-60(TB) leukemia
HOP-62 NSCLC = test system: HOP-62 NSCLC
HOP-92 NSCLC = test system: HOP-92 NSCLC
HS 578T breast = test system: HS 578T breast
HT29 colon = test system: HT29 colon
K-562 leukemia = test system: K-562 leukemia
KM12 colon = test system: KM12 colon
LOX IMVI melanoma = test system: LOX IMVI melanoma
M14 melanoma = test system: M14 melanoma
MALME-3M melanoma = test system: MALME-3M melanoma
MDA-MB-231 breast = test system: MDA-MB-231 breast
MDA-MB-435 melanoma = test system: MDA-MB-435 melanoma
MOLT-4 leukemia = test system: MOLT-4 leukemia
NCI-H226 lung = test system: NCI-H226 lung
NCI-H23 lung = test system: NCI-H23 lung
NCI-H322M lung = test system: NCI-H322M lung
NCI-H460 NSCLC = test system: NCI-H460 NSCLC
NCI-H522 lung = test system: NCI-H522 lung
NCI/ADR-RES ovarian = test system: NCI/ADR-RES ovarian
OVCAR-3 ovarian = test system: OVCAR-3 ovarian
OVCAR-4 ovarian = test system: OVCAR-4 ovarian
OVCAR-5 ovarian = test system: OVCAR-5 ovarian
PC-3 prostate = test system: PC-3 prostate
RPMI-8226 leukemia = test system: RPMI-8226 leukemia
RXF 393 renal = test system: RXF 393 renal
SF-268 CNS = test system: SF-268 CNS
SF-295 CNS = test system: SF-295 CNS
SF-539 CNS = test system: SF-539 CNS
SK-MEL-2 melanoma = test system: SK-MEL-2 melanoma
SK-MEL-28 melanoma = test system: SK-MEL-28 melanoma
SK-MEL-5 melanoma = test system: SK-MEL-5 melanoma
SK-OV-3 ovarian = test system: SK-OV-3 ovarian
SN12C renal = test system: SN12C renal
SNB-19 CNS = test system: SNB-19 CNS
SNB-75 CNS = test system: SNB-75 CNS
SR leukemia = test system: SR leukemia
SW-620 colon = test system: SW-620 colon
T-47D breast = test system: T-47D breast
U251 glioblastoma = test system: U251 glioblastoma
UACC-257 melanoma = test system: UACC-257 melanoma
UACC-62 melanoma = test system: UACC-62 melanoma
UO-31 renal = test system: UO-31 renal

Compound `C[C@@H](NC(=O)/C(C#N)=C/c1ccc([N+](=O)[O-])cc1)c1ccccc1` has a GI50 ([…]-0 renal) of 1.72 µM, a TGI (786-0 renal) of 3.21 µM and a GI50 (A498 renal) of 1.91 µM. For the same compound, the TGI (A498 renal) was 3.54 µM, the GI50 (A549 NSCLC) was 3.04 µM and the TGI (A549 NSCLC) was 8.55 µM. It also gave a GI50 (ACHN renal) of 1.79 µM, a TGI (ACHN renal) of 3.25 µM and a GI50 (BT-549 breast) of 1.85 µM. The TGI (BT-549 breast) was 3.42 µM, the GI50 (CAKI-1 renal) was 1.72 µM and the TGI (CAKI-1 renal) was 3.32 µM. For the same compound, the GI50 (CCRF-CEM leukemia) was 1.64 µM, the TGI (CCRF-CEM leukemia) was 3.02 µM and the GI50 (COLO 205 colon) was 1.71 µM. For the same compound, the TGI (COLO 205 colon) was 3.11 µM, the GI50 (DU-145 prostate) was 3.2 µM and the TGI (DU-145 prostate) was 9.86 µM. For the same compound, the GI50 (EKVX NSCLC) was 1.91 µM, the TGI (EKVX NSCLC) was 3.55 µM and the GI50 (HCC-2998 colon) was 1.14 µM. The TGI (HCC-2998 colon) was 2.42 µM, the GI50 (HCT-116 colon) was 2.59 µM and the TGI (HCT-116 colon) was 5.95 µM. For the same compound, the GI50 (HCT-15 colon) was 1.72 µM, the TGI (HCT-15 colon) was 3.24 µM and the GI50 (HL-60(TB) leukemia) was 1.78 µM. For the same compound, the TGI (HL-60(TB) leukemia) was 3.18 µM, the GI50 (HOP-62 NSCLC) was 2.4 µM and the TGI (HOP-62 NSCLC) was 5.77 µM. For the same compound, the GI50 (HOP-92 NSCLC) was 3.22 µM, the TGI (HOP-92 NSCLC) was 12.1 µM and the GI50 (HS 578T breast) was 1.85 µM. It also gave a TGI (HS 578T breast) of 3.41 µM, a GI50 (HT29 colon) of 1.82 µM and a TGI (HT29 colon) of 3.25 µM. For the same compound, the GI50 (K-562 leukemia) was 1.85 µM, the TGI (K-562 leukemia) was 4.04 µM and the GI50 (KM12 colon) was 1.9 µM. For the same compound, the TGI (KM12 colon) was 3.79 µM, the GI50 (LOX IMVI melanoma) was 1.93 µM and the TGI (LOX IMVI melanoma) was 3.49 µM. The GI50 (M14 melanoma) was 2.37 µM, the TGI (M14 melanoma) was 5.7 µM and the GI50 (MALME-3M melanoma) was 2.29 µM. It also gave a TGI (MALME-3M melanoma) of 4.6 µM, a GI50 (MDA-MB-231 breast) of 3.03 µM and a TGI (MDA-MB-231 breast) of 7.47 µM. It also gave a GI50 (MDA-MB-435 melanoma) of 3.26 µM, a TGI (MDA-MB-435 melanoma) of 10.4 µM and a GI50 (MOLT-4 leukemia) of 1.5 µM. The TGI (MOLT-4 leukemia) was 2.85 µM, the GI50 (NCI-H226 lung) was 2.04 µM and the TGI (NCI-H226 lung) was 4.28 µM. The GI50 (NCI-H23 lung) was 1.83 µM, the TGI (NCI-H23 lung) was 3.39 µM and the GI50 (NCI-H322M lung) was 1.98 µM. For the same compound, the TGI (NCI-H322M lung) was 3.82 µM, the GI50 (NCI-H460 NSCLC) was 1.74 µM and the TGI (NCI-H460 NSCLC) was 3.24 µM. The GI50 (NCI-H522 lung) was 0.271 µM, the TGI (NCI-H522 lung) was 0.964 µM and the GI50 (NCI/ADR-RES ovarian) was 2.08 µM. For the same compound, the TGI (NCI/ADR-RES ovarian) was 4.65 µM, the GI50 (OVCAR-3 ovarian) was 1.61 µM and the TGI (OVCAR-3 ovarian) was 3.12 µM. It also gave a GI50 (OVCAR-4 ovarian) of 1.73 µM, a TGI (OVCAR-4 ovarian) of 3.3 µM and a GI50 (OVCAR-5 ovarian) of 2.57 µM. It also gave a TGI (OVCAR-5 ovarian) of 6.52 µM, a GI50 (PC-3 prostate) of 2 µM and a TGI (PC-3 prostate) of 3.93 µM. The GI50 (RPMI-8226 leukemia) was 1.7 µM, the TGI (RPMI-8226 leukemia) was 3.09 µM and the GI50 (RXF 393 renal) was 1.72 µM. For the same compound, the TGI (RXF 393 renal) was 3.15 µM, the GI50 (SF-268 CNS) was 2.23 µM and the TGI (SF-268 CNS) was 5.52 µM. The GI50 (SF-295 CNS) was 1.94 µM, the TGI (SF-295 CNS) was 3.85 µM and the GI50 (SF-539 CNS) was 2.18 µM. It also gave a TGI (SF-539 CNS) of 4.3 µM, a GI50 (SK-MEL-2 melanoma) of 2.02 µM and a TGI (SK-MEL-2 melanoma) of 3.57 µM. It also gave a GI50 (SK-MEL-28 melanoma) of 3.48 µM, a TGI (SK-MEL-28 melanoma) of 9.82 µM and a GI50 (SK-MEL-5 melanoma) of 2.09 µM. For the same compound, the TGI (SK-MEL-5 melanoma) was 3.79 µM, the GI50 (SK-OV-3 ovarian) was 2.19 µM and the TGI (SK-OV-3 ovarian) was 4.54 µM. The GI50 (SN12C renal) was 2.01 µM, the TGI (SN12C renal) was 4.19 µM and the GI50 (SNB-19 CNS) was 2.33 µM. The TGI (SNB-19 CNS) was 5.78 µM, the GI50 (SNB-75 CNS) was 1.76 µM and the TGI (SNB-75 CNS) was 3.24 µM. For the same compound, the GI50 (SR leukemia) was 1.28 µM, the TGI (SR leukemia) was 2.58 µM and the GI50 (SW-620 colon) was 1.88 µM. For the same compound, the TGI (SW-620 colon) was 3.39 µM, the GI50 (T-47D breast) was 2.75 µM and the TGI (T-47D breast) was 5.85 µM. It also gave a GI50 (U251 glioblastoma) of 1.74 µM, a TGI (U251 glioblastoma) of 3.26 µM and a GI50 (UACC-257 melanoma) of 3.39 µM. For the same compound, the TGI (UACC-257 melanoma) was 9.81 µM, the GI50 (UACC-62 melanoma) was 1.82 µM and the TGI (UACC-62 melanoma) was 3.51 µM. For the same compound, the GI50 (UO-31 renal) was 1.34 µM and the TGI (UO-31 renal) was 2.66 µM.
